Like-named read-outs stand apart in the source and are kept apart here.
Assays:
[1] = after 5 weeks, cited from earlier work
[2] = tested on: HDP cells; assay: In vitro cell proliferation assay (WST-1); assay type: cell-based, human; conditions: between 0.5 and 5 µg/mL
[3] = in vivo; conditions: Sprague-Dawley, rat, plasma, rats; for AUC(0-inf): read-out: AUCinf of SFN; for AUC(0-t): read-out: AUClast of SFN; for half-life: read-out: T1/2 of SFN (converted)
Description: To evaluate absolute oral bioavailability, an intravenous (IV) bolus dose of SFN (2 mg/kg, dissolved in normal saline, 200 µL) was administered via a cannulated femoral vein. Blood samples (300 µL) were collected from the femoral artery at predetermined time points: 0.17, 0.5, 1, 1.5, 2, 4, 8, and 12 h post-IV dosing, and 0.17, 0.5, 1, 2, 4, 6, 8, and 12 h post-oral dosing. Samples were immediately centrifuged at 13,000× g for 5 min at 4 °C to separate plasma, which was stored at −80 °C until further analysis.
The plasma concentrations of SFN were determined using liquid chromatography–tandem mass spectrometry (LC–MS/MS) following protein precipitation and solid-phase extraction. Briefly, 180 µL of plasma was spiked with 10 µL of SFN working solution (0.2–20 µg/mL) and 10 µL of internal standard (IS), phenethyl isothiocyanate (PHE, 5 µg/mL in acetonitrile). Proteins were precipitated by adding 200 µL of a solvent mixture consisting of 25% acetonitrile, 25% water, and 50% ethanol, followed by centrifugation at 18,340× g for 5 min at 4 °C. The resulting 400 µL supernatant was subjected to SPE using Oasis® HLB 96-well µElution plates (2 mg sorbent per well, 30 µm particle size; Waters Corporation, Milford, MA, USA), preconditioned with 200 µL each of methanol and water. After sample loading, the wells were washed sequentially with 200 µL of water and 50% aqueous methanol, and analytes were eluted with 400 µL of acetonitrile (2 × 200 µL).
Chromatographic separation was achieved on an ACQUITY UPLC system (Waters Corporation) using a BEH C18 column (50 × 2.1 mm, 1.7 µm). The mobile phase consisted of 10 mM ammonium acetate in water (30%, solvent A) and 0.1% formic acid in acetonitrile (70%, solvent B), delivered at a flow rate of 0.6 mL/min. The column temperature was maintained at 50 °C, and the injection volume was 10 µL.
Detection was performed using a Xevo TQ-S triple quadrupole mass spectrometer (Waters Corporation) equipped with an electrospray ionization source in the positive-ion mode. Multiple reaction monitoring (MRM) transitions were set at m/z 178.0 → 114.0 for SFN (cone voltage: 24 V; collision energy: 30 eV) and m/z 164.0 → 130.0 for PHE (cone voltage: 23 V; collision energy: 22 eV). The instrument settings included a capillary voltage of 3.0 kV, source temperature of 120 °C, desolvation temperature of 500 °C, desolvation gas (nitrogen) flow of 800 L/h, and cone gas (nitrogen) flow of 50 L/h. Argon was used as the collision gas. All the MRM parameters were optimized using the software IntelliStart^TM (Waters Corporation).
The calibration curve for SFN was linear over the range of 0.5–1000 ng/mL, with a lower limit of detection (LOD) of 0.5 ng/mL. The overall recovery of SFN using the described extraction method was 90 ± 3%, when compared to the direct analysis of the standard diluted in methanol.

[4] = tested on: CCD-986sk dermal fibroblasts; conditions: human, 24 h
[5] = in humans; cited from earlier work
[6] = tested on: HDP cells; assay: In vitro scratch wound recovery assay; assay type: cell-based, human
Description: No. BA-045855; Sartorius AG, […], Germany). […] Sartorius AG), following the manufacturer's instructions. Detached cells were removed by washing twice with PBS (pH 7.4). […] All treatments were performed in triplicate, including a vehicle control. […] Wound closure was quantified using the Incucyte® Scratch Wound Analysis Software Module, which calculates relative wound density (%) by comparing cell density within the wound area to that of the surrounding monolayer, providing an objective measure of cell migration and proliferation over time.

[7] = in water at 25 °C; cited from earlier work
[8] = pH 1.2 (mimics gastric fluid), within 1 h; cited from earlier work
[9] = tested on: HaCaT keratinocytes; conditions: human, 24 h
[10] = tested on: HDP cells; assay: Boyden chamber migration assay; assay type: cell-based, human; conditions: 24 h, BSE based on SFN equivalence
Description: To evaluate the migratory ability of HDP cells, a Boyden chamber assay was performed. HDP cells were serum-starved for 24 h in a medium containing 0.5% (v/v) FCS. […] The lower chambers were filled with 600 µL of HDP medium supplemented with 4% FCS, 4% bovine pituitary extract, 1 ng/L recombinant human fibroblast growth factor, and 5 µg/L recombinant human insulin. After a 24 h incubation period to allow for migration, cells were fixed with 4% paraformaldehyde (BL539A, Biosharp, Hefei, Anhui, China) for 15 min and stained using Crystal Violet Staining Solution (C0121, Beyotime, Shanghai, China) for 10 min. Non-migrated cells on the upper side of the insert membrane were carefully removed using a cotton swab. To quantify migrated cells, the basal chambers were filled with 500 µL of calcein-AM-based cell dissociation solution. Cells were incubated for 1 h at 37 °C, and the fluorescence of the dissociated calcein-AM was measured using a microplate reader at an excitation wavelength of 485 nm and an emission wavelength of 520 nm.

C[S+]([O-])CCCCN=C=S (stereo not drawn) [SFN, Sulforaphane]
residual SFN content ([1]; stored at 4 °C): 95.18 ± 0.20% | residual SFN content ([1]; stored at 26 °C): 78.45 ± 0.28% | residual SFN content ([1]; stored at −20 °C): 96.56 ± 0.15% | relative cell proliferation [2]: approximately 200% | Cmax ([3]; SFN IV 2 mg/kg): 339 ± 50 ng/mL | AUC(0-inf) ([3]; SFN IV 2 mg/kg): 421 ± 67 ng·h/mL | AUC(0-t) ([3]; SFN IV 2 mg/kg): 403 ± 52 ng·h/mL | half-life ([3]; SFN IV 2 mg/kg): 7 ± 3 h | Cmax ([3]; SFN oral 5 mg/kg): 155 ± 17 ng/mL | Tmax ([3]; SFN oral 5 mg/kg): 2 h | bioavailability ([3]; SFN oral 5 mg/kg, vs SFN IV): 87 ± 5% | AUC(0-inf) ([3]; SFN oral 5 mg/kg): 934 ± 41 ng·h/mL | AUC(0-t) ([3]; SFN oral 5 mg/kg): 874 ± 46 ng·h/mL | half-life ([3]; SFN oral 5 mg/kg): 5 h | concentration at which proliferation decreased (dose-dependent cytotoxicity) [4]: ≥ 5000 ng/mL | biological half-life [5]: approximately 2.2 h | scratch wound closure ([6]; 1 µg/mL, 16 h): 71.5% | scratch wound closure ([6]; 1 µg/mL, 20 h): 74.9% | scratch wound closure ([6]; 1 µg/mL, 24 h): 94.8% | scratch wound closure ([6]; 25 µg/mL, 16 h): significant cell detachment and reduced recovery | scratch wound closure ([6]; 25 µg/mL, 20 h): remaining below the control | aqueous solubility [7]: ~ 1.85 mg/mL | fraction degraded [8]: ~90% | concentration above which cytotoxic effects (decreased cell viability) were seen [9]: above 10 µg/mL | relative HDP cell migration (untreated control = 100%) ([10]; 0.1 µg/mL): 141% | relative HDP cell migration (untreated control = 100%) ([10]; 1 µg/mL): 150% | relative HDP cell migration (untreated control = 100%) ([10]; 25 µg/mL): 16.7%

From PMC12347391, “Sulforaphane-Rich Broccoli Sprout Extract Promotes Hair Regrowth in an Androgenetic Alopecia Mouse Model via Enhanced Dihydrotestosterone Metabolism” (International Journal of Molecular Sciences, 2025)
